# From ChEMBL document CHEMBL1201862, “PubChem BioAssay data set” (2004)
# Values joined by “and” are separate entries in the source; they are usually repeats but may differ in a detail not shown here. Equal values may be shown once. Where a name gives a salt, the structure may show the parent alone. Active and inactive are the calls of the source.
# Experiments:
# [1] = YAP1 overexpression rescue of CTGF inhibition – DLD1 cells, RT-qPCR, cherry-pick, mechanism study for YAP1 pathway inhibitor project, dose response (AID 1053127); assay type: functional, cell-based; details: DLD-1
# [2] = viability loss in A549 lung cancer cells – cell-based, cherry-picks, […], cytotoxicity control, dose response (AID 1053119); assay type: functional
# [3] = blockers of FN fibrillogenesis by fibroblasts – AH1F cells, Alexa488-FN fluorescence, cherry-picks, dose response (AID 1035475); assay type: functional, cell-based
# [4] = cells; details: A549
# [5] = target: T1, Disintegrin and metalloproteinase domain-containing protein 17 (Homo sapiens, UniProt P78536); experiment: exosite inhibitors of ADAM17, dose response, biochemical (AID 743260)
# [6] = inhibition of ADAM10 peptide cleavage – biochemical, FRET peptide substrate, recombinant human ADAM10, selectivity assay for ADAM17 exosite inhibitor project, dose response (AID 743259);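 note: ADAM10 enzyme cleaving a FRET peptide substrate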
# [7] = potency of ADAM10 substrate cleavage blockers – biochemical, QFRET, dose response (AID 743254);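 note: ADAM10 enzyme with the DM2 quenched FRET peptide as substrate; EDANS fluorescence gain as the protease cuts the substrate; inhibitor potency against ADAM10 proteolytic activity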
# [8] = target: T1, Disintegrin and metalloproteinase domain-containing protein 17; experiment: inhibition of ADAM17 substrate cleavage – biochemical, quenched FRET substrate, counter-screen for ADAM10 exosite inhibitor project, dose response (AID 743253)
# [9] = target: 1-phosphatidylinositol 4,5-bisphosphate phosphodiesterase gamma-1 (Homo sapiens, UniProt P19174); experiment: Counterscreen for inhibitors of phospholipase C isozymes (PLC-B3): Fluorescence-based biochemical high throughput dose response assay to identify inhibitors of phospholipase C isozymes (PLC-gamma1).
# [10] = target: 1-phosphatidylinositol 4,5-bisphosphate phosphodiesterase beta-3 (Homo sapiens, UniProt Q01970); experiment: Fluorescence-based biochemical high throughput dose response assay to identify inhibitors of phospholipase C isozymes (PLC-B3).
# [11] = activation of miR-122 Renilla sensor silencing – cell-based, Huh7 psiCHECK-miR122, Renilla luciferase, cherry-picked, dose response (AID 651956); assay type: functional;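 note: huh7 hepatoma cells stably carrying a psiCHECK-2 miR-122 sensor plasmid; renilla luciferase signal reporting endogenous miR-122 activity after 48 h compound exposure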
# [12] = viability loss in HepG2 hepatoma cells – cell-based, cherry-picks, set 5, cytotoxicity control, dose response (AID 1053118); assay type: functional
# [13] = general mammalian cell viability loss – activator set, cherry-pick, cytotoxicity control for miR-122 modulator project, dose response (AID 720690); assay type: functional, cell-based;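 note: HEK293T human cells scored for general mammalian cytotoxicity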
# [14] = viability loss in HEK293 kidney cells – cell-based, cherry-picks, set 5, cytotoxicity control, dose response (AID 1053117); assay type: functional
# [15] = A cytotoxicity screen of small molecule inhibitors of the PhoP region in Salmonella typhi identified in the primary screen. [Related pubchem assays: 1850, 1864, 1985 ]; assay type: functional
# [16] = target: Acyl-protein thioesterase 1 (Homo sapiens, UniProt O75608); experiment: Late stage assay provider results from the probe development effort to identify selective inhibitors of LYPLA1: fluorescence-based biochemical dose-response assay.
# [17] = target: T2, Oxysterols receptor LXR-beta (Homo sapiens, UniProt P55055); assay type: functional, cell-based;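 note: agonist activity at LXR measured by a cell-based luminescence readout across a dose range, run as a counterscreen for daf-12 agonists; HEK293 cells with Gal4-LXR fusion and GAL4-driven luciferase reporter; potency for activation of Gal4-LXR reporter so compounds are agonists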
# T2 sequence (P55055 whole entry): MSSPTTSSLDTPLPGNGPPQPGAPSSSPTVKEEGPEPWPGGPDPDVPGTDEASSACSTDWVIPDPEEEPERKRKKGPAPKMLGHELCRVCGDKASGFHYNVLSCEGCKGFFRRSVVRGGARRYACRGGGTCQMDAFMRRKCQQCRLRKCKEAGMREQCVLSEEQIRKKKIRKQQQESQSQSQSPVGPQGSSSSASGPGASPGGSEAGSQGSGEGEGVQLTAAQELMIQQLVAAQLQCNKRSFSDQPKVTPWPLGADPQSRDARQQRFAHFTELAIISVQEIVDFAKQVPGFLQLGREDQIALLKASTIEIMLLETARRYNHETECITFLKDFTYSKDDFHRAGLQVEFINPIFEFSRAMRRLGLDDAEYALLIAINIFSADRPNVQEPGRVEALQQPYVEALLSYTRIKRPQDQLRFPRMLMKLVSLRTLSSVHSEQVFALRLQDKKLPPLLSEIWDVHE
# [18] = blockers of HIV-1 envelope-mediated cell-cell fusion – cherry-pick, dose response (AID 652057); assay type: functional, cell-based
# [19] = viability loss in CEM21 cells – cell-based, CellTiter-Glo luminescence, cherry-picked, cytotoxicity control for viral fusion inhibitor project, dose response (AID 652042); assay type: functional;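 note: potency for signal decrease meaning cytotoxicity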
# [20] = off-target signal loss in HeLa-CEM21 co-culture – HeLa F-luc CTL cells, cherry-picked, counter-screen for HIV-1 Env fusion inhibitor project, dose response (AID 652040); assay type: functional, cell-based;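 note: potency for signal decrease marking cytotoxic or nonspecific inhibition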
# [21] = HIV-1 AD8 envelope cell-cell fusion blockers – cherry-pick, dose response (AID 652062); assay type: functional, cell-based;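 note: luciferase signal from cell-cell fusion driven by HIV-1 clade B AD8 Env; potency is for inhibitors of fusion seen as a drop in luminescence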
# [22] = inhibition of Env-driven cell fusion – HIV entry, plate reader, dry powder, dose response (AID 687023); assay type: functional, cell-based
# [23] = viability loss in CEM21 cells – cell-based, plate reader, dry powder, cytotoxicity control, dose response (AID 687026); assay type: functional
# [24] = tested on: HEK293; experiment: viability loss in HEK293T cells – cell-based, ATP luminescence, cherry-pick samples, cytotoxicity control, dose response (AID 687005); assay type: functional; details: Homo sapiens;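 note: cells exposed to compound for 48 hours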
# [25] = HEK293 Cytotoxicity Assay Measured in Cell-Based System Using Plate Reader - 7071-01_Inhibitor_Dose_CherryPick_Activity_Set2.; assay type: functional
# [26] = Late-stage results from the probe development effort to identify antagonists of arginine vasopressin receptor 1a (AVPR1a): fluorescence-based cell-based dose response AVPR1a inhibition assay.; assay type: functional
# [27] = target: Vasopressin V1b receptor (Homo sapiens, UniProt P47901); experiment: Late-stage results from the probe development effort to identify antagonists of arginine vasopressin receptor 1a (AVPR1a): fluorescence-based cell-based dose response AVPR1b inhibition counterscreen assay.; assay type: functional
# [28] = target: Vasopressin V2 receptor (Homo sapiens, UniProt P30518); experiment: Late-stage results from the probe development effort to identify antagonists of arginine vasopressin receptor 1a (AVPR1a): fluorescence-based cell-based dose response AVPR2 inhibition counterscreen assay.; assay type: functional
# [29] = Late-stage results from the probe development effort to identify antagonists of arginine vasopressin receptor 1a (AVPR1a): fluorescence-based cell-based dose response OXTR inhibition counterscreen assay.; assay type: functional
# [30] = target: NAD-dependent protein deacylase sirtuin-5, mitochondrial (Homo sapiens, UniProt Q9NXA8); experiment: blockers of sirtuin-5 peptide desuccinylation – biochemical, fluorescence imaging, cherry-pick, set 6, dose response (AID 720597)
# [31] = target: fMet-Leu-Phe receptor (Homo sapiens, UniProt P21462); experiment: formyl peptide receptor binders – dose response (AID 519); assay type: functional
# [32] = target: Potassium channel subfamily K member 3 (Homo sapiens, UniProt O14649); experiment: inhibition of human KCNK3 channel flux – CHO cells, FluxOR thallium flux, SAR follow-up (AID 652212); assay type: functional
# [33] = reduction of Shn3 3'UTR-driven luciferase in osteoblasts – cell-based, Clone20 osteoblasts, firefly luciferase, cherry-picked, dose response (AID 624132); assay type: functional;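 note: firefly luciferase luminescence from reporter carrying the Shn3 3'UTR in osteoblasts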
# [34] = loss of viability in HepG2 cells – cell-based, CellTiter-Glo, cherry-picked, cytotoxicity control for Shn3 inhibitor project, dose response (AID 624134); assay type: functional
# [35] = non-specific 3'UTR reporter inhibition in Clone20-Shn3RL – cell-based, Renilla luciferase, cherry-picked, counter-screen for Shn3 inhibitor project, dose response (AID 624133); assay type: functional
# [36] = target: Matrix metalloproteinase-14 (Homo sapiens, UniProt P50281); experiment: Dose Response confirmation of uHTS hits for a small molecule inhibitors of MT1-MMP activation in a fluorescence assay set 1.; assay type: functional
# [37] = Shn3 3'UTR reporter signal decrease – cell-based, Clone20 osteoblasts, firefly luciferase, cherry-pick, set 2, Schnurri-3 inhibitor project, dose response (AID 720490); assay type: functional;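 note: actives lower the luminescence signal as inhibitors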
# T1 sequence (P78536 whole entry, the tested form may be a part): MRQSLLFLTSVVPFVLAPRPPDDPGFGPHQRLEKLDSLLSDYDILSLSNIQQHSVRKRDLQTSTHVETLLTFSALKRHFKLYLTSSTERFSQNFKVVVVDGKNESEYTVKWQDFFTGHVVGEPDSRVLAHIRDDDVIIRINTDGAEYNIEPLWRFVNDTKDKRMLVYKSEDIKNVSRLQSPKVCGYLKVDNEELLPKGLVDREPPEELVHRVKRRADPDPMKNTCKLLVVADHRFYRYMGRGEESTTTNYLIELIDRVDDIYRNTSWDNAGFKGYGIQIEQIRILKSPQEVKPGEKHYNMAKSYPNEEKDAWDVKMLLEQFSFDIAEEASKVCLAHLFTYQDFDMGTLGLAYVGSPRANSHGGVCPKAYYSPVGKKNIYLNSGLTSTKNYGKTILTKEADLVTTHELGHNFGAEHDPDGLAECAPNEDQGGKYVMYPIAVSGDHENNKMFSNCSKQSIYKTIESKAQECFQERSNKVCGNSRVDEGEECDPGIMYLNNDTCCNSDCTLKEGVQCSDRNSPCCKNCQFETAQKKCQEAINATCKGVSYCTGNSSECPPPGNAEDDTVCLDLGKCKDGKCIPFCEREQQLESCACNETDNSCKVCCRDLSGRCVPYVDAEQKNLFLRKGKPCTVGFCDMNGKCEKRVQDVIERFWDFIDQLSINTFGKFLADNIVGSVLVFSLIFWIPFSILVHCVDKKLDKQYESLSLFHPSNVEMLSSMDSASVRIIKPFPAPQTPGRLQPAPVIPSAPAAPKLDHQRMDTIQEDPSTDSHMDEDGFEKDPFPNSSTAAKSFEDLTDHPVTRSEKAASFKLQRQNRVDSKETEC
# Sequence of 1-phosphatidylinositol 4,5-bisphosphate phosphodiesterase beta-3 (Q01970 whole entry): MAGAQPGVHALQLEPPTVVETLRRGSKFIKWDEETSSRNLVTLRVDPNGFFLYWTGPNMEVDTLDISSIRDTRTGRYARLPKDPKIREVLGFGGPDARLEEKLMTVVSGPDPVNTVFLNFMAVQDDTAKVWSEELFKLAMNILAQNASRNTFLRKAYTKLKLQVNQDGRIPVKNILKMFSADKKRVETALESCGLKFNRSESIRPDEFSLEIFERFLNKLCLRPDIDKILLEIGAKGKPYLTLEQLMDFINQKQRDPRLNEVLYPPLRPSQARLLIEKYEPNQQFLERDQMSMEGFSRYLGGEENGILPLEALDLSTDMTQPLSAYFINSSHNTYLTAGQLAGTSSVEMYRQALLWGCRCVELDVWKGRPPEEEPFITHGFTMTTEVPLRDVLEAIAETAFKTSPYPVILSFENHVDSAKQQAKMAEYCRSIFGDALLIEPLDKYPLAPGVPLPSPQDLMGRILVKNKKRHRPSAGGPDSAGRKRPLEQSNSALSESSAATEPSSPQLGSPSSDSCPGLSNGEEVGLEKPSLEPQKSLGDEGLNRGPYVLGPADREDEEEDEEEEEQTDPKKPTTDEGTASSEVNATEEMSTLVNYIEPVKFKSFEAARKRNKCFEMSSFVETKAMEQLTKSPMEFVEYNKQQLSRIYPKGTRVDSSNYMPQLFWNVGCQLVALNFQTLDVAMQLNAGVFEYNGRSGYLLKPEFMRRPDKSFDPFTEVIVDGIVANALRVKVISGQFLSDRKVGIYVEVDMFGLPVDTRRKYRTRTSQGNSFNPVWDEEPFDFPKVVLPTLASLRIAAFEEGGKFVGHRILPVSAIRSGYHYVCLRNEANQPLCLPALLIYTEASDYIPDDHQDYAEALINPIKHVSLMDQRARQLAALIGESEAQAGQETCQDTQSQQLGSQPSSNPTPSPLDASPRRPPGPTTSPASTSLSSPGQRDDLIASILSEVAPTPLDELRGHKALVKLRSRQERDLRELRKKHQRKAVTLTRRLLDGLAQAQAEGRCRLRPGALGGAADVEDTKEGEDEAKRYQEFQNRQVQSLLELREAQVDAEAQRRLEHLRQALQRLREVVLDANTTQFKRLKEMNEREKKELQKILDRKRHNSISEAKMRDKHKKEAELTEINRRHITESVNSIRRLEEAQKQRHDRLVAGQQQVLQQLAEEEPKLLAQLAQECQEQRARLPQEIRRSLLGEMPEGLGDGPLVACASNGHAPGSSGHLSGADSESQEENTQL
# Sequence of Vasopressin V1b receptor (P47901 whole entry): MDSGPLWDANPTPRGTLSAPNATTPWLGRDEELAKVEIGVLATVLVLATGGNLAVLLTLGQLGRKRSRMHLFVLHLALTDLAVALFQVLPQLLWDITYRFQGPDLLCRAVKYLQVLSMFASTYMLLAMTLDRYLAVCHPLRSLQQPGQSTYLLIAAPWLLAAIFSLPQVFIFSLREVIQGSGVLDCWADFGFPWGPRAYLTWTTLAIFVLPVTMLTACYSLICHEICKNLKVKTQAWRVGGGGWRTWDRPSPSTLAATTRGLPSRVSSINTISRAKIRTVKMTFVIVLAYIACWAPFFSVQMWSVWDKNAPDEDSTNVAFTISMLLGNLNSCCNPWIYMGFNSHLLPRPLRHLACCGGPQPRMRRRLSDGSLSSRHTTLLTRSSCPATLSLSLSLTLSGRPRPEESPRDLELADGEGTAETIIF
# Sequence of 1-phosphatidylinositol 4,5-bisphosphate phosphodiesterase gamma-1 (P19174 whole entry): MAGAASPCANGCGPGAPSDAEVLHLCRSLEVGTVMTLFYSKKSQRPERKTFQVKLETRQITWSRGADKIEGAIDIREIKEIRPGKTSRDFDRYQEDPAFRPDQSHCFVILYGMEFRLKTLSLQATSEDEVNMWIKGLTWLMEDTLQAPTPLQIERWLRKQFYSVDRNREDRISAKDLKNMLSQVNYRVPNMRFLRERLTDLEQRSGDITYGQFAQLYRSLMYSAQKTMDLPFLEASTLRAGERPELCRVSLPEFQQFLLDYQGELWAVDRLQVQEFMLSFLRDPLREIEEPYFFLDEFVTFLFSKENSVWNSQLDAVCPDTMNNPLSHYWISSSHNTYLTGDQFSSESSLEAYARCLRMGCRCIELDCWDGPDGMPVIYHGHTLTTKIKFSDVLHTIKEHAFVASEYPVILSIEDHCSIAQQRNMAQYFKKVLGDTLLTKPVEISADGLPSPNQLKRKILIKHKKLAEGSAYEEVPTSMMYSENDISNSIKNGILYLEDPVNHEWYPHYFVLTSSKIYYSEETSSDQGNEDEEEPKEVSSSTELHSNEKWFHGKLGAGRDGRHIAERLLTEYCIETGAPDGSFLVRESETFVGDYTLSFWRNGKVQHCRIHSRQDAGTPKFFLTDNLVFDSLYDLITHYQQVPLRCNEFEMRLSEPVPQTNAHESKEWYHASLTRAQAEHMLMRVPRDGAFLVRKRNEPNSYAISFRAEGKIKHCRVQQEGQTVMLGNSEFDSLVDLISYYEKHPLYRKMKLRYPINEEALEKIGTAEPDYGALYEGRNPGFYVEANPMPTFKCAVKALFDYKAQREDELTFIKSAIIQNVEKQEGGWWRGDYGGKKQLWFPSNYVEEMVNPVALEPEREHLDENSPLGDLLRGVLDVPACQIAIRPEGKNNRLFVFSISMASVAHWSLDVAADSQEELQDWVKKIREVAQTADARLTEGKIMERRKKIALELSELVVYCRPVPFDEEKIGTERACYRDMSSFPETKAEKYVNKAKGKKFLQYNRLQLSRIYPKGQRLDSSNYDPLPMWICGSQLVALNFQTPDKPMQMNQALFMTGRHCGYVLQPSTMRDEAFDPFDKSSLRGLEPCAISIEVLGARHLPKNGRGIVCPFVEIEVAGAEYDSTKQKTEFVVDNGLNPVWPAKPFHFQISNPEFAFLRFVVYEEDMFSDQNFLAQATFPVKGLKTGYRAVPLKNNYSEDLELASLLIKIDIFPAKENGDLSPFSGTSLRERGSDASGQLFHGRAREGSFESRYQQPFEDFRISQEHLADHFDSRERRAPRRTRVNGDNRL
# Sequence of Potassium channel subfamily K member 3 (O14649 whole entry): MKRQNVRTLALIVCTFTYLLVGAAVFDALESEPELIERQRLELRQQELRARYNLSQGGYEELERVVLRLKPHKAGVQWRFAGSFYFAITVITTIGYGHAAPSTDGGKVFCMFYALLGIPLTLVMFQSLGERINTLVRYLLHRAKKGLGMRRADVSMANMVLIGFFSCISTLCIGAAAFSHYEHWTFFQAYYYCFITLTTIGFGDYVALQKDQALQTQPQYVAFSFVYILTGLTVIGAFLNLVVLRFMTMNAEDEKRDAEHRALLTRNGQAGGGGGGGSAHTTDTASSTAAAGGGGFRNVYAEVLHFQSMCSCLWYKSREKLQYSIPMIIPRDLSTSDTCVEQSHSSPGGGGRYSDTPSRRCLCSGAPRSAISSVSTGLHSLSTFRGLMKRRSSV
# Sequence of Vasopressin V2 receptor (P30518 whole entry): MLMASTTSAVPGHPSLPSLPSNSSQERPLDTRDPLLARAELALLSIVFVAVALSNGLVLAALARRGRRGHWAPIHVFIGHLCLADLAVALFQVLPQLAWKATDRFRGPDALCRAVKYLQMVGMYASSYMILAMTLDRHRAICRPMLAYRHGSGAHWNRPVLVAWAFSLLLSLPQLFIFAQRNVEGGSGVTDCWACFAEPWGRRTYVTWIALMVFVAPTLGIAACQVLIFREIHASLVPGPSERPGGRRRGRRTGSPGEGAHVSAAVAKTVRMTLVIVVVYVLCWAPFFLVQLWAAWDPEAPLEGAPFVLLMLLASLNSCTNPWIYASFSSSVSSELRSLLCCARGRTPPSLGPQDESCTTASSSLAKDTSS
# Sequence of fMet-Leu-Phe receptor (P21462 whole entry): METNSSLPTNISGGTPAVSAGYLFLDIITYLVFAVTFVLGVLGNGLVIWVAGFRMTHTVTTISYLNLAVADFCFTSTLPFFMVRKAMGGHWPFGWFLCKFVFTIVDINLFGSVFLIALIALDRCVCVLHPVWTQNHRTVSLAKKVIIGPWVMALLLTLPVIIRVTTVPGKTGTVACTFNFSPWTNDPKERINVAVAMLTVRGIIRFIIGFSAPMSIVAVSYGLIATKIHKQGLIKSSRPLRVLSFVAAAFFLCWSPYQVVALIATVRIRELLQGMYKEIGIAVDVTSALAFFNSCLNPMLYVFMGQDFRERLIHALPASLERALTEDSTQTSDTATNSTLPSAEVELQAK
structure (smiles),measurement,setting,value
CS(=O)(=O)N1CC(=O)N2[C@H](C1)[C@@H](c1ccc(C#Cc3ccc(F)cc3)cc1)[C@@H]2CO,AC50,[1],> 26 µM (inactive)
O=C(NCc1ccccc1)c1ccc(-c2cn[nH]c2)c2ccoc12,AC50,[2],> 52 µM (inactive)
same,AC50,[3],0.142 µM (active)
Fc1ccc(-c2nc3ccccn3c2NCc2ccc3c(c2)OCO3)cc1,AC50,[4],> 52 µM (inactive)
CCOc1ccc(CNC(=S)N/N=C/c2ccc(OC)c(OC)c2)cc1,IC50,[5],> 69.5 µM (inactive)
same,IC50,[6],> 69.5 µM (inactive)
COc1ccc(-c2[nH]nc(C)c2-c2cnn(-c3ccccc3)c2)c(O)c1C,IC50,[7],> 7.72 µM (active)
same,IC50,[8],> 69.5 µM (inactive)
COc1cccc(C(=O)Nc2ccc(-n3nncc3C(C)(C)C)cc2)c1,IC50,[9],> 122 µM (inactive)
same,IC50,[10],> 122 µM (inactive)
CO[C@@H]1CN(C)C(=O)c2cc(NC(=O)Nc3cc(Cl)cc(Cl)c3)ccc2OC[C@H](C)NC[C@H]1C,AC50,[11],10.1 µM (active)
same,AC50,[12],10.9 µM (active)
same,AC50,[13],17.6 µM (active)
same,AC50,[14],12.8 µM (active)
same,AC50,[3],29 µM (active)
COc1ccc(N2CCN(C(=O)c3cc4c(s3)-c3ccccc3S(=O)(=O)C4)CC2)cc1,EC50,[15],> 50 µM (active)
same,IC50,[16],> 10 µM (inactive)
Cn1c(O)c(N=NC(=O)c2ccco2)c2ccccc21,EC50,[17],> 67.5 µM (inactive)
CC(=O)Nc1ccc(NC(=O)CN(c2ccc(C34CC5CC(CC(C5)C3)C4)cc2)S(C)(=O)=O)cc1,AC50,[18],2.87 µM (active)
same,AC50,[19],57.7 µM (active)
same,AC50,[20],> 70 µM (inactive)
same,AC50,[21],5.78 µM (active)
same,AC50,[22],7.68 µM (active) and 9 µM (active)
same,AC50,[23],50.4 µM (active)
C[C@H]1CN([C@@H](C)CO)S(=O)(=O)c2ccc(Br)cc2O[C@@H]1CN(C)S(=O)(=O)c1ccccc1F,AC50,[24],15.7 µM (active)
same,AC50,[25],15.7 µM (active)
COc1ccc(N(CC2CC2)C(=O)N2CCN(c3ccccc3C(F)(F)F)CC2)cc1,IC50,[26],0.0588 µM (active)
same,IC50,[27],17.9 µM (inactive)
same,IC50,[28],8.41 µM (active)
same,IC50,[29],0.12 µM (active)
Cc1ccc(S(=O)(=O)N(C)C[C@H]2OCCCC[C@H](C)Oc3ccc(NS(=O)(=O)c4ccc(F)cc4)cc3C(=O)N([C@@H](C)CO)C[C@H]2C)cc1,AC50,[30],> 30 µM (inactive)
CCN(CCCc1ccccc1)CCCc1ccccc1 [ALVERINE CITRATE],Ki,[31],> 66.7 µM (inactive)
CCOc1ccc(NC(=O)c2cccc(NC(=O)C3CCCC3)c2)cc1,IC50,[32],0.07 µM (active)
CNc1ccccc1C(C)(C)c1cc(-c2cccc(OC)c2)no1,AC50,[33],1.92 µM (active)
same,AC50,[34],56.8 µM (active)
same,AC50,[35],9.49 µM (active)
same,IC50,[36],> 80 µM (inactive)
same,AC50,[37],1.82 µM (active)
